Results from publication PMC10142904, “Identification of Novel Cyclooxygenase-1 Selective Inhibitors of Thiadiazole-Based Scaffold as Potent Anti-Inflammatory Agents with Safety Gastric and Cytotoxic Profile” (Molecules, 2023).
Where “and” joins values, the source holds several entries; their conditions need not be identical. Equal entries are not always repeated. Where two headings read alike, the source gives them in different places.

Experiments:
gastric mucosa = test: Ulcerogenic activity (gastric lesions after oral dosing); format: in vivo; conditions: mice, oral 0.028 mmol/kg, 3 successive days, N = 5
Description: Gastric toxicity was conducted through oral administration of 0.028 mmol/kg of the tested derivatives on mice, and the extent of lesions of the gastric mucosa was measured. […] This study clearly indicated the superiority of our compounds over indomethacin concerning ulcerogenic liability.
The ulcerogenicity effect of compounds was assessed on male mice by following the reported protocol. Male mice weighing 22–25 g were separated into six groups (five animals in each group). […] The placebo control group was administrated saline with few drops of Tween-80. The animals were sacrificed 4 h after the last dose, and the stomachs were inspected for stomach lesions. The scoring of ulcerogenicity was expressed in terms of: average number of ulcers per stomach, percentage incidence of ulcers and percent incidence of ulcer divided by 10. The ulcer index was calculated using the sum of the three above values.

[1] = system: carrageenan-induced mouse paw edema; test: Carrageenan-induced mouse paw edema; format: in vivo; conditions: i.p., 0.028 mmol/kg, paw weight after 3.5 h; for inhibition in vivo at 28 µmol/kg: Mus musculus, ip, 3.5 h
Description: All tested compounds were administrated through i.p. with a molar concentration of 0.028 mmol/kg.
The animals were weighed and then randomly divided into control, standard and test groups with each group including 10 mice. […] Edema was induced by injecting 0.1 mL of 1% aqueous solution of carrageenan subcutaneously to the sub-plantar region of the right hind paw, utilizing the left paw as control. The assessed derivatives, in suspended water/Tween-80, were injected i.p. […] After 3.5 h, the hind paws were excised and were weighed separately. The edema paws were estimated as paw weight increase.

human recombinant COX-2 = system: T1, human recombinant COX-2; test: COX-2 inhibition (Cayman COX Inhibitor Screening Assay); format: biochemical
T1 construct: purchased Cayman Chemical Co., Ann Arbor, MI, USA
Description: (§1) κ-Carrageenan and lipoxygenase type I-B from soybean were obtained from Sigma (St. Louis, MO, USA). COX inhibition was studied utilizing the kit of “COX Inhibitor Screening Assay” (Cayman Chemical Co., Ann Arbor, MI, USA).
(§2) The action of the tested derivatives on COX-1 and COX-2 inhibition was analyzed utilizing a commercial kit furnished by Cayman (Cayman Chemical Co., Ann Arbor, MI, USA) and by applying the instructions of the manufacturer. The kit utilizes human recombinant COX-2 and ovine COX-1 enzymes. […] The assay analyzes PGF2a produced by SnCl2 reduction of COX-derived PGH2.

[2] = cited from earlier work
ovine COX-1 = target: T2, ovine COX-1 (Ovis aries, UniProt P05979); test: COX-1 inhibition (Cayman COX Inhibitor Screening Assay); format: biochemical; conditions: for IC50: read-out: COX-1 Inhibition, IC50 (μΜ)
T2 construct: purchased Cayman Chemical Co., Ann Arbor, MI, USA
T2 sequence (P05979 25-600): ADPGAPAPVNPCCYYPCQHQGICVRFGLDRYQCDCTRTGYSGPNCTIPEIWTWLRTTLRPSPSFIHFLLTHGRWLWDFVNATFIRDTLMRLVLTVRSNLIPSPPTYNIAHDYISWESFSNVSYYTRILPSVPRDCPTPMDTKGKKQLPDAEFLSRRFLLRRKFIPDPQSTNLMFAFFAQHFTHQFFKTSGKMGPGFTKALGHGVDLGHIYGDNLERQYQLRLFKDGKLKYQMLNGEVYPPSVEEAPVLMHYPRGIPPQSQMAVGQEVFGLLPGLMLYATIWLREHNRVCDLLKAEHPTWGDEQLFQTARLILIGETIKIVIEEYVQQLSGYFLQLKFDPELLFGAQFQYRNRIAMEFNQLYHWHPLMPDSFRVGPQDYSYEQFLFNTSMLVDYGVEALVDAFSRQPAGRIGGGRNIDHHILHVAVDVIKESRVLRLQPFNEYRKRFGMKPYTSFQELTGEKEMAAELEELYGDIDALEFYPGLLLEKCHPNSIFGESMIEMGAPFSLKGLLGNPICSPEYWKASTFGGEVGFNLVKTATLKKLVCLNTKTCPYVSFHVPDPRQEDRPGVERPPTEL
Description: as §1, §2

MRC-5 cells = test: Cytotoxicity / cell proliferation in MRC-5 cells; format: cell-based, human; conditions: MRC-5 cells, 0.1, 1 and 10 μM, 48 h
Description: The evaluation of cellular cytotoxicity of derivatives 3, 4, 10, 11 and 14 in normal human MRC-5 cells was accomplished at three different concentrations in cell culture, i.e., 0.1, 1 and 10 μM (Figure 7). No substantial effect on cell proliferation after 48 h of exposure was found in cultures, as the growth was ≥98% for all assessed agents by comparison with the control (untreated cells) (Figure 7).
The MRC-5 human cell line from lung fibroblast was stored and then utilized in our laboratory in a conventional manner (passage < 40). MRC-5 cells were cultured (using a humidified atmosphere enclosing 5% CO2 at 37 °C) in medium DMEM with 10% v/v FBS, 1% PS penicillin–streptomycin. The assessed derivatives were dissolved in dimethyl sulfoxide and stored at a temperature of 4 degrees centigrade. For cytotoxicity assessment, cells were seeded in 96-well culture plates at 5 × 10^4 cells/mL (initial density) and permitted to attach for at least 3 h before adding the compounds at increasing concentrations (0.1, 1 and 10 µM). […] To evaluate the cytotoxicity of each derivative, the cells were given an additional 48 h to grow before estimating their number in culture utilizing the Neubauer counting chamber (microscope observation). In every treated culture, cell growth was expressed and reported as the percentage of untreated growing cells. GraphPad Prism 6.0 program was utilized in order to accomplish statistical t-test analysis.
Figure 7 Cell proliferation assessment of MRC-5 cell lines subjected to different derivatives in cell culture. MRC-5 cell lines grown in culture were incubated separately with each of the derivatives at concentrations of 0.1, 1 and 10 μM for 48 h. The cell number was analyzed in cell cultures with microscopic techniques (Neubauer counting chamber), as reported in “Methods” and expressed as % of the proliferation of cultures involving control untreated cells. […] The diagram illustrated above and the t-test statistical analysis were performed utilizing the GraphPad Prism 6.0 program. No significant statistical difference between the control untreated culture cells with each tested derivative was attained.

soybean LOX = system: T3, soybean LOX; test: LOX activity inhibition; format: biochemical
T3 construct: purchased Sigma (St. Louis, MO, USA)
Source text: κ-Carrageenan and lipoxygenase type I-B from soybean were obtained from Sigma (St. Louis, MO, USA). COX inhibition was studied utilizing the kit of “COX Inhibitor Screening Assay” (Cayman Chemical Co., Ann Arbor, MI, USA). In vivo tests, male and female (23–30 g) mice R”’ were stored in the Centre of the School of Veterinary Medicine (EL54-BIO42), (Aristotle University of Thessaloniki, Thessaloniki, Greek), licensed by the state official veterinary authorities (presidential degree 56/2013, in standardization with the European Directive 2010/63/EEC). The experimental protocols were approved by the Committee of Animal Ethics of the Prefecture of Central Macedonia (no. 270079/2500).
The reaction mixture contained the final concentration (300 µΜ) of the test derivatives, dissolved in absolute ethanol (10–300 µM), or the solvent (control), soybean LOX, dissolved in 0.9% NaCl solution (250 u/mL) and sodium linoleate (100 µM), in Tris–HCl buffer, pH 9.0. The reaction was monitored for 7 min at a temperature of 28 °C, noting the absorbance (234 nm) of a conjugated diene structure, following the formation of 13-hydroperoxy-linoleic acid. The performance of the assay was validated utilizing NDGA as a standard. For the evaluation of the inhibition type, the above experiments were repeated, utilizing sodium linoleate (1 mM), which is greater than the saturating substrate concentration.

## COc1ccc2c(c1)c(CC(=O)O)c(C)n2C(=O)c1ccc(Cl)cc1 [Indomethacin, reference compound]
Gastric mucosa
  Number of Animals with Ulcer: 4/5
Gastric mucosa; listed as indomethacin
  Number of Animals with Ulcer: four out of five

## O=C1N/C(=N\c2nnc(C34CC5CC(CC(C5)C3)C4)s2)S/C1=C\c1cccc(Cl)c1Cl [Compound 12]
[1]
  inhibition in vivo at 28 µmol/kg: 34.5 ± 1.1%

## COc1cc(/C=C2\S/C(=N/c3nnc(C45CC6CC(CC(C6)C4)C5)s3)NC2=O)ccc1O [Compound 15]
[1]
  inhibition in vivo at 28 µmol/kg: 21.4%
  Edema Inhibition, (%): 21.4 ± 2.1 %

## COc1ccc2cc([C@H](C)C(=O)O)ccc2c1 [Naproxen, reference compound]
Human recombinant COX-2
  COX-2 Inhibition, Inhibition (%) 200 μΜ: 17.0 ± 2.3 %

## COc1ccc(-n2nc(C(F)(F)F)cc2-c2ccc(Cl)cc2)cc1 [SC-560]
[2]
  Gastric toxicity (in words): devoid of any gastric toxicity

## O=C1N/C(=N\c2nnc(C34CC5CC(CC(C5)C3)C4)s2)S/C1=C\c1ccccc1[N+](=O)[O-] [Compound 8]
[1]
  inhibition in vivo at 28 µmol/kg: 37 ± 1.4%

## Cc1onc(-c2ccc(Cl)o2)c1-c1ccccc1 [Compound P6]
[2]
  Gastric toxicity (in words): devoid of any gastric toxicity

## O=C1N/C(=N\c2nnc(C34CC5CC(CC(C5)C3)C4)s2)S/C1=C\c1ccc(Cl)cc1Cl [Compound 13]
[1]
  inhibition in vivo at 28 µmol/kg: 36 ± 1.8%

## O=C1N/C(=N\c2nnc(C34CC5CC(CC(C5)C3)C4)s2)S/C1=C\c1cccc([N+](=O)[O-])c1 [Compound 9]
[1]
  inhibition in vivo at 28 µmol/kg: 41.9 ± 1.8%

## O=C1NC(=Nc2nnc(C34CC5CC(CC(C5)C3)C4)s2)SC1=Cc1ccc([N+](=O)[O-])cc1 [Compound 4]
Ovine COX-1
  COX-1 Inhibition, Inhibition (%) 200 μΜ: 100%
  IC50: 1.12 µM and 1.08 µM
Human recombinant COX-2
  COX-2 Inhibition, Inhibition (%) 200 μΜ: 0%
MRC-5 cells
  Cell growth by comparison with the control (untreated cells): ≥ 98%
[1]
  inhibition in vivo at 28 µmol/kg: 66.7%
  Edema Inhibition, (%): 66.7 ± 2.1 %
Gastric mucosa
  Number of Animals with Ulcer: nil
Soybean LOX
  Enzymatic inhibition against LOX (in words): modest enzymatic inhibition
  LOX Inhibition (%) 100 μΜ: 39.8 ± 181 %

## O=C1NC(=Nc2nnc(C34CC5CC(CC(C5)C3)C4)s2)SC1=Cc1ccc(Br)cc1 [Compound 3]
Ovine COX-1
  COX-1 Inhibition, Inhibition (%) 200 μΜ: 100%
  IC50: 1.08 µM and 1.12 µM
Human recombinant COX-2
  COX-2 Inhibition, Inhibition (%) 200 μΜ: 0%
MRC-5 cells
  Cell growth by comparison with the control (untreated cells): ≥ 98%
[1]
  inhibition in vivo at 28 µmol/kg: 62%
  Edema Inhibition, (%): 62.0 ± 1.8 %
Gastric mucosa
  Number of Animals with Ulcer: nil
Soybean LOX
  Enzymatic inhibition against LOX (in words): modest enzymatic inhibition
  LOX Inhibition (%) 100 μΜ: 42.9 ± 1.9 %

## O=C1NC(=Nc2nnc(C34CC5CC(CC(C5)C3)C4)s2)SC1=Cc1c(Cl)cccc1Cl [Compound 14]
Ovine COX-1
  COX-1 Inhibition, Inhibition (%) 200 μΜ: 100%
  IC50: 9.62 ± 0.5 µM
Human recombinant COX-2
  COX-2 Inhibition, Inhibition (%) 200 μΜ: 0%
MRC-5 cells
  Cell growth by comparison with the control (untreated cells): ≥ 98%
[1]
  inhibition in vivo at 28 µmol/kg: 60 ± 1.9%
Gastric mucosa
  Number of Animals with Ulcer: nil
Soybean LOX
  Enzymatic inhibition against LOX (in words): modest enzymatic inhibition
  LOX Inhibition (%) 100 μΜ: 34.5 ± 1.6 %

## COc1ccc2c(c1)c(CC(=O)O)c(C)n2C1CCN(C)CC1 [N-methylpiperidinylindole]
[2]; in vivo
  Gastric toxicity (in words): devoid of any gastric toxicity

## O=C1N/C(=N\c2nnc(C34CC5CC(CC(C5)C3)C4)s2)S/C1=C\c1ccc(F)cc1 [Compound 2]
[1]
  inhibition in vivo at 28 µmol/kg: 39.7 ± 1.6%

## Nc1ccc(NC(=O)c2ccc(C(F)(F)F)cc2)cc1 [TFAP]
[2]; in vivo
  Gastric toxicity (in words): devoid of any gastric toxicity

## COc1ccc(/C=C2\S/C(=N/c3nnc(C45CC6CC(CC(C6)C4)C5)s3)NC2=O)cc1 [Compound 6]
[1]
  inhibition in vivo at 28 µmol/kg: 37 ± 1.6%

## COc1ccc(-c2nc(C(=O)N3CCN(C)CC3)sc2-c2ccc(OC)cc2)cc1 [FR122047]
[2]
  Gastric toxicity (in words): devoid of any gastric toxicity

## Cc1ccc(/C=C2\S/C(=N/c3nnc(C45CC6CC(CC(C6)C4)C5)s3)NC2=O)cc1 [Compound 5]
[1]
  inhibition in vivo at 28 µmol/kg: 47.2 ± 1.2%

## O=C1NC(=Nc2nnc(C34CC5CC(CC(C5)C3)C4)s2)SC1=Cc1cccc(F)c1F [Compound 10, 2-{[5-(Adamantan-1-yl)-1,3,4-thiadiazol-2-yl]-imino}-5-(2,3-difluorobenzylidene)-1,3-thiazolidin-4-one]
MRC-5 cells
  Cell growth by comparison with the control (untreated cells): ≥ 98%
[1]
  inhibition in vivo at 28 µmol/kg: 55.8%
  Edema Inhibition, (%): 55.8 ± 1.9 %

## COc1ccc(-c2noc(CC(=O)O)c2-c2ccc(OC)cc2)cc1 [Mofezolac]
[2]; dose of 10 mg
  Ulcer index: 0.98

## CC(C)Cc1ccc([C@H](CF)C(=O)O)cc1 [(S)-F-ibuprofen]
[2]
  Gastric damage (in words): low gastric damage

## CN(C)c1ccc(/C=C2\S/C(=N/c3nnc(C45CC6CC(CC(C6)C4)C5)s3)NC2=O)cc1 [Compound 7]
[1]
  inhibition in vivo at 28 µmol/kg: 43.6 ± 1.3%

## O=C1N/C(=N\c2nnc(C34CC5CC(CC(C5)C3)C4)s2)S/C1=C\c1ccccc1 [Compound 1]
[1]
  inhibition in vivo at 28 µmol/kg: 40.8 ± 1.9%

## O=C1N/C(=N\c2nnc(C34CC5CC(CC(C5)C3)C4)s2)S/C1=C\c1c(F)cccc1F [Compound 11]
MRC-5 cells
  Cell growth by comparison with the control (untreated cells): ≥ 98%
[1]
  inhibition in vivo at 28 µmol/kg: 60%

## COc1ccc(-c2nc(NCC(=O)O)sc2-c2ccc(OC)cc2)cc1 [diarylthiazole]
[2]
  Gastric damage (in words): low gastric damage
